The values that follow come from ChEMBL document CHEMBL3507680, “University of Dundee, Gates Library screen for HepG2 cell viability”.

This data set can be described thus: Human HepG2 cell viability assay in 384 well format. The format is toxicity, cell-based. Further details: dose 125 nL, time 70.5 hour; cytotoxicity at 70.5 h: concentration not given beside the values. The following applies: HepG2 cells, read-out: Inhibition.
Regarding `CCSc1cc(C(=O)NCCc2nnc(-c3ccco3)[nH]2)ccn1`, the cytotoxicity at 70.5 h worked out at 20.1%.
With `CN(CCc1cn[nH]c1)Cc1nc(Cc2cccc(F)c2)no1` the figure was 19%.
In the case of `O=C(CO)N1C[C@H]2CN(Cc3cccc(F)c3)C(=O)[C@H]2C1`, the cytotoxicity at 70.5 h is -5.34%.
Next, `CC(C)c1nc(C2CCCN(C(=O)CCCn3cccn3)C2)no1` (stereo not drawn): -4.14%; `COc1cc(N2CCn3cc(CNc4ccccn4)nc3C2)ncn1`: 2.02%.
Next, `CCS(=O)(=O)N1CCc2cc(C(=O)NC)c(NCC3CC3)nc2CC1`: -4.13%; `CC(C)(C(=O)NCc1ccccc1F)n1cc(Br)cn1`: -6.29%.
As for `Cc1cccc(-c2noc([C@@H]3Cc4nc[nH]c4CN3)n2)c1`, the cytotoxicity at 70.5 h was -3%.
Next, `O=C(c1ccco1)N1CC[C@H]2C[C@@H](c3nccs3)O[C@@H]2C1`: -1.13%.
With `CCCc1n[nH]c(C2CN(C(=O)c3cc(C4CC4)on3)CCO2)n1` (stereo not drawn) the figure was -10.9%; with `Cc1ccccc1OC1CCN(CC(=O)Nc2cn(C)nc2C)CC1`, -1.78%; with `Cc1ccccc1N1CCN(C(=O)c2cnn(C(C)C)c2)C(C)C1` (stereo not drawn), -4.79%.
With `Fc1ccc2[nH]c3c(c2c1)CCN1C(c2ccncc2)N2CCC31CC2` (stereo not drawn) the figure was 22.4%; with `CN1CCO[C@H]2CN(S(=O)(=O)c3ccc(C#N)cc3)C[C@H]21`, 3.3%.
Regarding `Fc1ccc(CN2CC[C@H]3O[C@@H](COCc4cccnc4)CC[C@H]32)cc1`, the cytotoxicity at 70.5 h is -6.39%.
Take `Cn1cc(CN2C[C@H]3CN(c4cncnc4)C(=O)[C@H]3C2)cn1`: the cytotoxicity at 70.5 h is -2.54%.
With `Clc1ccccc1-c1cc(CNc2ncnc3c2CCNCC3)no1` the figure was 12.2%.
Next, `O=C1N(c2ccc(F)cc2)Cc2nc(=O)n(Cc3cccc(Cl)c3)n21`: -0.858%; `CCn1ncc(-c2cc(C(F)(F)F)nc(N3CCC(N)CC3)n2)c1C`: 8.37%; `COc1cccc2c1N(Cc1noc(C(C)(C)C)n1)CCC2`: 18.5%.
As to `COC1CCN(S(=O)(=O)N2CC(c3ccccc3)C(C)(C)C2)CC1` (stereo not drawn), the cytotoxicity at 70.5 h amounted to 27.1%.
For the molecule `Cc1nc(N2CC[C@@H](c3ccc4ccccc4c3)[C@H](O)C2)no1`, the cytotoxicity at 70.5 h was 3.2%.
Next, `Cn1cc(CN2CCCC23CCN(C(=O)c2ccncc2)CC3)cn1`: 20.3%; `Cc1ccn2cc(C(=O)N3CCCC3c3c(C)nn(C)c3C)nc2c1` (stereo not drawn): -7.44%; `COCCCC(=O)N(CCC(=O)O)Cc1ccc(F)c(F)c1`: -12.3%.
Next, `Cc1cc(N(C)CC2COc3ccccc3O2)nc(C)n1` (stereo not drawn): 9.74%; `CN1CCN(Cc2ccoc2)Cc2cccnc21`: -4.02%.
With `CN(C)CCN(C)C(=O)NC1CCC(Oc2ccccc2C#N)CC1` (stereo not drawn), the cytotoxicity at 70.5 h is -4.89%.
For the molecule `COc1ccc(CNC(=O)Nc2cccnc2OC)cc1O`, the cytotoxicity at 70.5 h came out at 22.7%.
With `O=C(c1ccncc1)N1CCCC1C1CCN(Cc2ccccc2)CC1` (stereo not drawn) the figure was 0.737%; with `c1cncc(CN2Cc3nccn3CC(Cn3cccn3)C2)c1` (stereo not drawn), -6.13%.
Next, `Cc1nnc([C@]23COC[C@H]2CN(Cc2cnn(C)c2)C3)o1`: -4.29%.
As to `Cc1nc(-c2noc3ccc(C(=O)NCCN(C)C)cc23)co1`, the cytotoxicity at 70.5 h is -7.57%.
Next, `Cc1cccc(CN2CCC3(CCCN(CC(=O)N(C)C)C3)C2)n1` (stereo not drawn): 7.75%; `O=C1CO[C@@H]2CN(S(=O)(=O)c3ccccc3F)C[C@H]2N1`: -3.37%; `COC1CN(C(=O)CC(C)(C)C)CCC(=O)N(C)c2ccccc21` (stereo not drawn): -4.95%.
With `CC(C)N1CCC(NC(=O)NCCC(=O)NCc2ccccc2)C1` (stereo not drawn), the cytotoxicity at 70.5 h amounted to 10.4%.
For `O=C1CCCN1Cc1ncn2c1CN(C(=O)NC1CCCCC1)CCC2`, the cytotoxicity at 70.5 h was 27.2%.
Next, `O=c1c2cnc(N3CCCCC3)nc2ccn1-c1ccccc1F`: 8.21%; `CCN1C[C@H]2C[C@H](C(=O)NCc3cccnc3)[C@@H](C1)O2`: 3.07%; `COCCCNC(=O)N1CCC(CNC(=O)c2cnn(C)c2)CC1`: -8.18%.
Turning to `CN(C)S(=O)(=O)N1CCO[C@H]2[C@H](Oc3cccnc3)CC[C@@H]21`, the cytotoxicity at 70.5 h is -3.81%.
With `Cc1cc(NC(=O)NCc2ccc(C)s2)no1` the figure was -8.73%; with `COCc1noc(-c2ccc(N3CCCCC3CCCO)nc2)n1` (stereo not drawn), -3.48%; with `Cc1nc(N2C[C@H]3CNC[C@H]3C2)c2sccc2n1`, 5.86%.
With `O=C(N1CCCC1)N1CCC2(CCN(Cc3ccccn3)C2=O)C1` (stereo not drawn) the figure was 2.54%; with `CC(c1cccc(S(N)(=O)=O)c1)N(C)CCOC(C)(C)C` (stereo not drawn), -2.34%.
Next, `O=C(NC1CCN(c2cccc(OC(F)(F)F)c2)C1=O)C1CC1` (stereo not drawn): 0.481%; `Cc1nc(-c2ccoc2)n(CC(=O)NCC(C)C)c1C`: 1.09%.
`Cc1ncsc1CCN(C)C(=O)CN1CC2(CCCC2)CC1=O`: the cytotoxicity at 70.5 h was -15%.
With `Cc1ccn(CCNc2ncnc3c2CCN(Cc2ncc[nH]2)CC3)n1` the figure was -8.65%; with `O=C1OCCN1c1cccc(CNS(=O)(=O)Cc2ccc(F)cc2)c1`, -6.39%; with `CCS(=O)(=O)CCNc1nc(C2CCCC2)nc2c1cnn2C`, -6.16%.
Turning to `CCn1nc2c(cc1=O)CN(Cc1nc(C)c3ccccc3n1)CC2`, the cytotoxicity at 70.5 h was -6.18%.
Next, `COc1ccc(CC(=O)N2CCN(c3nccn3C)CC2)cc1`: -1.27%; `Cc1ccccc1CNC(=O)N1CCC(n2cncn2)CC1`: -5.36%.
Regarding `CCN(CC)C(=O)CN1CCc2c(nc(C3CCNCC3)nc2NC)C1`, the cytotoxicity at 70.5 h is -8.61%.
As for `CC(C)(C)C(=O)NCCNCc1ccc(Cl)c2cccnc12`, the cytotoxicity at 70.5 h was -0.239%.
Next, `O=C(c1ccccc1N1CCOCC1)N1CCCC1Cn1cccn1` (stereo not drawn): -4.2%; `CNC(=O)Cc1ccccc1NC(=O)N[C@H]1c2ccccc2C[C@H]1O`: -13.7%; `c1c(CN2CCCC2)nc2n1CCN(CC1CC1)C2`: -4.19%.
With `c1coc(CN2CCn3c(COCC4CC4)nnc3C2)c1` the figure was 0.787%; with `O=C(NCc1nnc2n1CCCC2)N(Cc1ccccc1F)C1CC1`, -11.1%; with `COc1ccccc1CN1C(=O)O[C@@H]2CN(S(=O)(=O)N(C)C)C[C@@H]21`, -0.664%.
Next, `NC(=O)c1sc2ccccc2c1C1CCN(S(=O)(=O)N2CCOCC2)C1` (stereo not drawn): 1.58%; `CO[C@@H]1CCN(S(=O)(=O)N(C)C)[C@@H]2CN(Cc3ccncc3)C[C@@H]21`: -1.72%; `O=C(O)C1(Oc2ccc3ccccc3c2)CCN(c2ncccn2)CC1`: -0.873%.
In the case of `FC(F)(F)c1ccc(-c2noc3c2CN(CC2CCCO2)CC3)cc1` (stereo not drawn), the cytotoxicity at 70.5 h was -10.2%.
